Test results published in PubChem BioAssay AID1250 (SRMLSC, 2008).
Active and inactive are the calls of the source.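 The calls were made as follows: active = inhibition of at least 30% at one or more tested concentrations; inactive = inhibition below 30% at every dose.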

Test: inhibitors of Bluetongue virus cytopathic effect, confirmation, arbovirus, BSR cells (AID 1250)
Settings: BSR cells, Bluetongue virus CPE, ATP luminescence, 72 h; at 20 µM (top of the series)

Row | SMILES | CPE inhibition
1 | C(=N\Nc1nc(-c2ccccc2)cs1)/c1ccco1 | 20.9% (inactive)
2 | C=CCn1c(N)c(C(=O)NCc2cccnc2)sc1=S | 2.55% (inactive)
3 | Oc1ccc(Br)cc1-c1nc2cnccn2c1NC1CCCC1 | 16.6% (inactive)
4 | CCCc1c(OCCCCc2nn[nH]n2)ccc(C(C)=O)c1O | 12.8% (inactive)
5 | CCc1cccc(C)c1NC(=O)CN(C)Cc1ccc(Br)cc1 | 10.2% (inactive)
6 | Nc1c(-c2ccccc2)c(CSc2nc3ccccc3[nH]2)nn1-c1cccc(Cl)c1 | 23.8% (inactive)
7 | Cc1cccc2c1nc(-c1ccccc1)n1nnnc21 | -3.74% (inactive)
8 | CCCCCCc1cc2cc(C(=O)Nc3ccc(OC)cc3)c(=O)oc2cc1O | -3.41% (inactive)
9 | Fc1ccc2nc(Nc3nc4c(F)cccc4s3)sc2c1 | 20.9% (inactive)
10 | CC1CC(C)CN(c2nc(NCc3ccco3)nc(N)c2[N+](=O)[O-])C1 (centres undefined) | 25.5% (inactive)
11 | O=c1c(Cl)c(N2CCN(c3ccc(F)cc3)CC2)cnn1C12CC3CC(CC(C3)C1)C2 | -3.76% (inactive)
12 | Cc1ccc(C(CC(=O)O)Nc2nc(N3CCCCC3)nc(N3CCCCC3)n2)cc1 (centres undefined) | 9.28% (inactive)
13 | O=C(NNC(=S)NC1CCCCC1)c1ccc(Cl)s1 | 28.3% (inactive)
14 | O=C(Nc1nc(-c2ccc3c(c2)OCO3)cs1)C1COc2ccccc2O1 (centres undefined) | 22.7% (inactive)
15 | CCOc1ccc(-n2c(=S)sc3c(=O)[nH]c(SCC(=O)C(C)(C)C)nc32)cc1 | 7.23% (inactive)
16 | O=C(O)C(Cc1ccccc1)N=Cc1c(O)c2ccccc2oc1=O (centres undefined) | 7.31% (inactive)
17 | CCC(C)Sc1nc2c(c(=O)[nH]1)C(c1cccs1)C1=C(CCCC1=O)N2 (centres undefined) | 10.1% (inactive)
18 | COc1ccc(C(=O)NN/C(C)=C/C(=O)C(F)(F)C(F)(F)C(F)(F)F)cc1 | -14.6% (inactive)
19 | COC(=O)c1ccccc1NC(=O)CN1CCC(n2nnc3cc(C(F)(F)F)ccc32)CC1 | 16.3% (inactive)
20 | CCOC(=O)C(NC(=O)c1cccc(Cl)c1)(OCc1ccc(F)cc1)C(F)(F)F (centres undefined) | -3.2% (inactive)
21 | COc1ccc(-c2csc(Nc3ncccc3C)n2)cc1OC | 14.9% (inactive)
22 | Brc1ccccc1-c1nnc(SCc2nc3ccccc3s2)o1 | 0.37% (inactive)
23 | COc1ccc(-c2nc(C3CCCCC3)no2)cc1OC | 8.02% (inactive)

Row | SMILES | CPE inhibition
24 | CC(C)C(=O)Nc1nnc(SCC(=O)N2c3ccccc3CC2C)s1 (centres undefined) | 11.5% (inactive)
25 | Cc1cccc(N2CCN(C(=O)C3COc4ccccc4O3)CC2)c1C (centres undefined) | 19.7% (inactive)
26 | CCOc1ccc(-n2c(=O)[nH]c3sc4c(c3c2=O)CCCC4)cc1 | 16.6% (inactive)
27 | O=C(O)c1ccccc1Sc1c([N+](=O)[O-])cc(C(F)(F)F)cc1[N+](=O)[O-] | 9.2% (inactive)
28 | Cc1cccc(/C(N)=N/OC(=O)COc2ccc(Cl)cc2)c1 | 5.92% (inactive)
29 | Cc1nn(C)cc1CN(C)Cc1ccc(OCC(O)CN2CCCCC2)cc1 (centres undefined) | 11.1% (inactive)
30 | Cc1ccc2nc(NC(=O)C3CCCN(S(=O)(=O)c4cnc[nH]4)C3)sc2c1 (centres undefined) | 22.3% (inactive)
31 | Cc1nn(CC(=O)OCCOc2ccc(Br)cc2)c(C)c1[N+](=O)[O-] | 2.41% (inactive)
32 | Cc1nn(CC(O)Cn2c3c(c4ccccc42)CCN(C)C3=O)c(C)c1Br (centres undefined) | 22.4% (inactive)
33 | O=C(N/N=C/c1c(O)n(-c2ccccc2Cl)c(=O)c2ccccc12)c1cccnc1 | 26% (inactive)
34 | CCc1nn2cc(C(=O)c3ccccc3O)cnc2c1-c1ccc(F)cc1 | 14.2% (inactive)
35 | CCCc1cc(=O)[nH]c(SCc2ccc(C#N)cc2)n1 | 14.6% (inactive)
36 | O=c1oc(/C=C/c2ccccc2)nc2ccccc12 | 16.6% (inactive)
37 | O=C(O)c1cnc(-c2ccccc2)nc1Sc1ccc(Cl)cc1 | 15.2% (inactive)
38 | CCOC(=O)c1ccc(NC(=O)Cn2nnc(-c3ccccc3)n2)cc1 | 12.9% (inactive)
39 | O=C1CC(c2cccc([N+](=O)[O-])c2)c2ccc3ccccc3c2N1 (centres undefined) | 8.81% (inactive)
40 | Cc1ccccc1N=C1SCC(=O)N1Cc1ccccc1 | 3.79% (inactive)
41 | CC(=O)Nc1ccc(NC(=O)COc2ccccc2C(=O)Nc2cccc(Cl)c2Cl)cc1 | 15% (inactive)
42 | Cc1cccc(OCC(=O)Nc2cccc(C(=O)Nc3ccccc3C(=O)O)c2)c1 | 27.3% (inactive)
43 | Cc1ccc(-c2csc(NC(=O)c3cccc(S(=O)(=O)N4CCN(C)CC4)c3)n2)cc1 | 5.05% (inactive)
44 | CSc1ccccc1NC(=O)CO/N=C(\C)c1cc2ccccc2o1 | 12.9% (inactive)
45 | Cc1ccc2nc(NC(=O)C3CCN(S(=O)(=O)c4cnc[nH]4)CC3)sc2c1 | 14% (inactive)
46 | Cc1cccc(CSc2nn3c(=O)c(C)nnc3s2)c1 | 19.1% (inactive)

Row | SMILES | CPE inhibition
47 | O=C(Nc1nc(-c2ccccc2)cs1)c1ccc(=O)[nH]c1 | 12% (inactive)
48 | CCc1nnc(NS(=O)(=O)c2ccc(NC(=O)COc3ccc4ccccc4c3)cc2)s1 | 25.7% (inactive)
49 | CC1=Nc2ccc(C)cc2/C1=C/c1c(N)n2c(S(=O)(=O)C(C)C)nsc2nc1=O | 15.9% (inactive)
50 | Oc1ccccc1CN1CCCN(Cc2ccccc2O)C1 | 2.17% (inactive)
51 | O=c1[nH]n2c(=O)c3c([nH]c2c1N=Nc1cccc(Cl)c1)CCC3 | 16.8% (inactive)
52 | O=[N+]([O-])c1cc(/C=N\Nc2nc(-c3ccccc3)cs2)ccc1O | 26.1% (inactive)
53 | Cc1cc(/C=C2/C(=N)N3C(=NC2=O)SN=C3S(C)(=O)=O)c(C)n1-c1ccc(F)cc1 | 20.6% (inactive)
54 | Cc1ccc(C)c(Cn2nnc3c(=O)[nH]c(C(=O)Nc4ccc(F)cc4)nc32)c1 | 11.9% (inactive)
55 | O=CNCC(=O)NCCc1ccc(Cl)cc1 | 1.49% (inactive)
56 | CCOc1ccc(-n2c(C)cc(/C=C3/C(=N)N4C(=NC3=O)SN=C4S(C)(=O)=O)c2C)cc1 | 25.5% (inactive)
57 | N#Cc1c(-c2ccccc2)nc(SCC(=O)N(c2ccccc2)c2ccccc2)[nH]c1=O | 12.2% (inactive)
58 | COC(=O)c1c(-c2ccccc2)csc1N1C(=O)Nc2ccccc2N1O | 10.9% (inactive)
59 | O=C1CN(C(=O)/C=C/c2ccc(Cl)cc2)c2ccccc2N1 | 7.62% (inactive)
60 | CC1Cc2ccccc2N1C(=O)CSc1ccccc1 (centres undefined) | -1.84% (inactive)
61 | O=C(O)CCCC(=O)Nc1nc2n(n1)C(c1ccc(F)cc1)CC(c1ccc(Cl)cc1)N2 (centres undefined) | 2.43% (inactive)
62 | CCCS(=O)(=O)n1nc(-c2ccc(OC)cc2OC)cc1N | -1.58% (inactive)
63 | Fc1ccccc1COc1ccc2ccccc2c1CNc1nn[nH]n1 | 11.5% (inactive)
64 | c1ccc(CSc2ccc(-c3cccnc3)nn2)nc1 | 0.68% (inactive)
65 | COc1cccc2sc(NN)nc12 | 15.8% (inactive)
66 | O=C(Nc1nc2ccccc2s1)c1ccc(OCC2CCCO2)cc1 (centres undefined) | 5.66% (inactive)
67 | CCn1nc(C)c(NC(=O)Nc2cccc(Cl)c2Cl)c1C | 2.62% (inactive)
68 | CCCCCCCCCCCC(=O)NC(C(=O)O)C(O)c1ccccc1 (centres undefined) | 11.5% (inactive)
69 | COc1ccc(/C=C/c2nc(-c3ccccc3O)n[nH]2)cc1OC | 14% (inactive)
